Results: ChEMBL document CHEMBL1142674, “Amino acid ester prodrugs of the antiviral agent 2-bromo-5,6-dichloro-1-(beta-D-ribofuranosyl)benzimidazole as potential substrates of hPEPT1 transporter” (J Med Chem, 2005)
The source made the active and inactive calls. The rule behind the calls is not given here.

Tests used:
Assay type in all cases: cell-based
[1] = molecular target: T1, Solute carrier family 15 member 1 (Homo sapiens, UniProt P46059); assay: Inhibitory concentration against [3H]glycylsarcosine uptake in HeLa cells expressing human Intestinal peptide transporter PepT1
T1 sequence (P46059 whole entry): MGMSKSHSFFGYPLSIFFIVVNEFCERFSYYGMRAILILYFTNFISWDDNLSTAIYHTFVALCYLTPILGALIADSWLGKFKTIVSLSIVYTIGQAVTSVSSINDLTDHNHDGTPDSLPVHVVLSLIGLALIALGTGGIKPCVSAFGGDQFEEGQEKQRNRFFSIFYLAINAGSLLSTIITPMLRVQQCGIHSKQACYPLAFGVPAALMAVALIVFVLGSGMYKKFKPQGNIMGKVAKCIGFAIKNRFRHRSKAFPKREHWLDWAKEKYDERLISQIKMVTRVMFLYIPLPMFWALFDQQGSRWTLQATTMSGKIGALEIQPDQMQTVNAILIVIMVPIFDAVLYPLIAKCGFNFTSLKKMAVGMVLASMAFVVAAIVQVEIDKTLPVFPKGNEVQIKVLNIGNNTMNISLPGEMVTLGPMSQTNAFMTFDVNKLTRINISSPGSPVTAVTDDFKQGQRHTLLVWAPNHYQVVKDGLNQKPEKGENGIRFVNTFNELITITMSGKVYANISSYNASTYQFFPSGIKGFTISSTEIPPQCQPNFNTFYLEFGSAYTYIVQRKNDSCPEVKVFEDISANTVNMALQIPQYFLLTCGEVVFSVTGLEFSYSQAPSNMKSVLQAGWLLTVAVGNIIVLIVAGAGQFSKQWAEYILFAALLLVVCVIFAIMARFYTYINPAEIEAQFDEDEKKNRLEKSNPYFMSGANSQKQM

[2] = molecular target: T2, Solute carrier family 15 member 1 (Homo sapiens) (UniProt P46059); assay: Relative inhibition of [3H]glycylsarcosine uptake in HeLa cells expressing human Intestinal peptide transporter PepT1 compared to BDCRB
T2 sequence (whole entry): T1 sequence (P46059 whole entry)

[3] = molecular target: T2, Solute carrier family 15 member 1 (Homo sapiens); assay: Relative inhibition of [3H]glycylsarcosine uptake in HeLa cells expressing human Intestinal peptide transporter PepT1 compared to BDCRB; na=Not applicable

Structure (SMILES)	IC50 [1] [µM]	Ratio [2]	Ratio [3]
CC(C)[C@H](N)C(=O)OC[C@H]1OC(n2c(Br)nc3cc(Cl)c(Cl)cc32)[C@H](O)[C@@H]1O (stereo partly drawn)	166	2.7	–
CC(C)[C@H](N)C(=O)OCCOCn1cnc2c(=O)nc(N)[nH]c21	–	–	inactive
N[C@@H](CC(=O)O)C(=O)OC[C@H]1OC(n2c(Br)nc3cc(Cl)c(Cl)cc32)[C@H](O)[C@@H]1O (stereo partly drawn)	260	1.7	–
NCCCC[C@H](N)C(=O)OC[C@H]1OC(n2c(Br)nc3cc(Cl)c(Cl)cc32)[C@H](O)[C@@H]1O (stereo partly drawn)	477	0.9	–
OC[C@H]1O[C@H](n2c(Br)nc3cc(Cl)c(Cl)cc32)[C@@H](O)[C@H]1O	447	–	inactive
N[C@H](Cc1ccccc1)C(=O)OC[C@H]1OC(n2c(Br)nc3cc(Cl)c(Cl)cc32)[C@H](O)[C@@H]1O (stereo partly drawn)	282	1.6	–
CCOc1ccc(C[C@H](N)C(=O)OC[C@H]2OC(n3c(Br)nc4cc(Cl)c(Cl)cc43)[C@H](O)[C@@H]2O)cc1 (stereo partly drawn)	96	4.7	–
O=C(OC[C@H]1OC(n2c(Br)nc3cc(Cl)c(Cl)cc32)[C@H](O)[C@@H]1O)[C@@H]1CCCN1 (stereo partly drawn)	537	0.8	–
CC(C)[C@H](N)C(=O)OCCOCn1cnc2c(=O)[nH]c(N)nc21 [VALACYCLOVIR]	431	–	–
CCC(C)[C@H](N)C(=O)OC[C@H]1O[C@@H](n2c(Br)nc3cc(Cl)c(Cl)cc32)[C@H](O)[C@@H]1O (stereo partly drawn)	121	3.7	–
COc1ccc(C[C@H](N)C(=O)OC[C@H]2OC(n3c(Br)nc4cc(Cl)c(Cl)cc43)[C@H](O)[C@@H]2O)cc1 (stereo partly drawn)	300	1.5	–
N[C@@H](Cc1ccc(Cl)cc1)C(=O)OC[C@H]1OC(n2c(Br)nc3cc(Cl)c(Cl)cc32)[C@H](O)[C@@H]1O (stereo partly drawn)	142	3.1	–
N[C@@H](Cc1ccccc1)C(=O)OC[C@H]1OC(n2c(Br)nc3cc(Cl)c(Cl)cc32)[C@H](O)[C@@H]1O (stereo partly drawn)	218	2.1	–
N[C@H](CC(=O)O)C(=O)OC[C@H]1OC(n2c(Br)nc3cc(Cl)c(Cl)cc32)[C@H](O)[C@@H]1O (stereo partly drawn)	421	1.1	–
CC(C)[C@@H](N)C(=O)OC[C@H]1OC(n2c(Br)nc3cc(Cl)c(Cl)cc32)[C@H](O)[C@@H]1O (stereo partly drawn)	342	1.3	–
